The values below come from patent US5639783A, “Ketone derivatives” (Mitsubishi Chemical Corporation, priority 1991, dated 1997).

For the experiment, the target named is T1, m-calpain (Rattus norvegicus, UniProt Q07009).
T1 construct: m-calpain was purified from rat brain; from tissue; host or cells: rat brain
T1 sequence (Q07009 20-700 limits assumed): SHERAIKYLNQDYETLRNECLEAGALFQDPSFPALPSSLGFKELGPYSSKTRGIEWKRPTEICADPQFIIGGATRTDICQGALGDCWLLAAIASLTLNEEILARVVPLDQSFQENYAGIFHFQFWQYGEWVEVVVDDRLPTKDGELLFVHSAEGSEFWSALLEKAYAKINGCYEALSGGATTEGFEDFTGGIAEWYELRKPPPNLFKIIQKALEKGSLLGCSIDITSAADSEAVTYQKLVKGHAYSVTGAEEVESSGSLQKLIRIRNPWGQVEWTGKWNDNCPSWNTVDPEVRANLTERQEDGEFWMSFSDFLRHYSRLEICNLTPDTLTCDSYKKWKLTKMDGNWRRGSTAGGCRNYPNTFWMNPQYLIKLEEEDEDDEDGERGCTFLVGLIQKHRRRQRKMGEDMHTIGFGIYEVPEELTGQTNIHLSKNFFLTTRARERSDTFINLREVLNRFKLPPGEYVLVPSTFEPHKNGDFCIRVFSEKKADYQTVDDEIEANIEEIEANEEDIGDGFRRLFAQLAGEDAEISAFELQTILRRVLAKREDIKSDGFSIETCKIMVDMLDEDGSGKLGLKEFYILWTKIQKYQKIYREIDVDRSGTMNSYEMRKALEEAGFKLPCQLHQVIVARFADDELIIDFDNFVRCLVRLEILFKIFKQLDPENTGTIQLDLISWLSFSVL
T1 sequence (Q64537 1-270 partner): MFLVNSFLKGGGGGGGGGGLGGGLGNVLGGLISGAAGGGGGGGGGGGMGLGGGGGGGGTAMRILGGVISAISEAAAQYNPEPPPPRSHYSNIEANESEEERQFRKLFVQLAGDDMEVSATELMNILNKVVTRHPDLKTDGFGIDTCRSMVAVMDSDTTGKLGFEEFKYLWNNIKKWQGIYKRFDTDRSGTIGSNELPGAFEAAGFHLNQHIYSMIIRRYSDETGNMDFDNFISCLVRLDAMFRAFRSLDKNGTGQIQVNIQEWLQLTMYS
Kind of experiment: Thiol protease inhibitory activity, m-calpain purified from rat brain. The note with it: Table 4. Type of experiment: biochemical. As to the method:
Inhibitory activity against papain (P-3125, Sigma) and cathepsin B (C-6286, Sigma) was assayed according to the method described in a literature [Biochemical Journal, 201, 189 (1982)]. Cathepsin L was purified from rat kidney according to the method in a literature [Journal of Biochemistry, 100, 35 (1986)], and the inhibitory activity against it was assayed in the same manner as described in the above literature for cathepsin B. Furthermore, m-calpain was purified from rat brain according to a known method [Journal of Biological Chemistry, 254, p. 3210 (1984)] and the inhibitory activity against it was assayed by a method described in a literature [Journal of Biological Chemistry, 259, 12489 (1984)]. It is evident from Tables 3 and 4 that the compounds of the present invention have a potent inhibitory activity against thiol proteases such as papain, cathepsin B, cathepsin L or m-calpain.
As usually defined, the IC50 is the concentration that inhibits the measured activity by half. Low readings indicate inhibition by little substance, high ones a need for much substance. Take `CCCC[C@H](NC(=O)[C@H](CC(C)C)NC(=O)COc1ccc(OC)cc1)C(=O)CSCc1ccco1` [48 (No. 104), (s)-1-furfurylthio-3-[(s)-2-(4-methoxyphenoxyacetylamino)-4-methylvalerylamino]-2-heptanone]: the concentration for half-maximal inhibition (IC50) turned out to be 1 µM. In turn, `CCCC[C@H](NC(=O)[C@H](CC(C)C)NC(=O)c1cc(F)ccc1F)C(=O)CSCc1ccco1` [60 (No. 122), (s)-3-[(s)-2-(2,5-difluorobenzoylamino)-4-methylvalerylamino]-1-furfurylthio-2-heptanone] yielded an IC50 of 1.3 µM. Under `CCCC[C@H](NC(=O)[C@H](CC(C)C)NC(=O)Cc1cccc2c1OCO2)C(=O)CSCc1ccco1` [32 (No. 73), (s)-1-furfurylthio-3-[(s)-4-methyl-2-(2,3-methylenedioxyphenylacetylamino)valerylamino]-2-heptanone] stands 6.2 µM; under `CCCC[C@H](NC(=O)[C@H](CC(C)C)NC(=O)c1cc(F)cc(F)c1)C(=O)CSCc1ccco1` [63 (No. 125), (s)-3-[(s)-2-(3,5-difluorobenzoylamino)-4-methylvalerylamino]-1-furfurylthio-2-heptanone], 5.5 µM; under `CCCC[C@H](NC(=O)[C@H](CC(C)C)NC(=O)c1cc(F)c(F)c(F)c1F)C(=O)CSCc1ccco1` [67 (No. 132), (s)-1-furfurylthio-3-[(s)-4-methyl-2-(2,3,4,5-tetrafluorobenzoylamino)valerylamino]-2-heptanone], 2.1 µM. Regarding `CCCC[C@H](NC(=O)[C@H](CC(C)C)NC(=O)c1c(F)cccc1F)C(=O)CSCc1ccco1` [61 (No. 123), (s)-3-[(s)-2-(2,6-difluorobenzoylamino)-4-methylvalerylamino]-1-furfurylthio-2-heptanone], the 50% inhibitory concentration (IC50) was determined as 1.9 µM. This IC50 and that of the compound before are within 1.5-fold of each other.

Regarding `CC(C)C[C@H](NC(=O)OCc1ccccc1)C(=O)N[C@@H](Cc1ccccc1)C(=O)CSCc1ccco1` [139 (No. 297), (s)-3-((s)-2-benzyloxycarbonylamino-4-methylvalerylamino)-1-furfurylthio-4-phenyl-2-butanone], the midpoint of inhibition, the IC50, lay at 4.5 µM. `CCCC[C@H](NC(=O)[C@H](CC(C)C)NC(=O)c1c(F)c(F)c(F)c(F)c1F)C(=O)CSCc1ccco1` [68 (No. 135), (s)-1-furfurylthio-3-((s)-4-methyl-2-pentafluorobenzoylaminovalerylamino)-2-heptanone]: 2.1 µM corresponded to half-maximal inhibition (IC50).

As for `CCCC[C@H](NC(=O)[C@H](CC(C)C)NC(=O)c1ccccc1C)C(=O)CSCc1ccco1` [69 (No. 140), (s)-1-furfurylthio-3-[(s)-4-methyl-2-(2-toluoylamino)valerylamino]-2-heptanone], the midpoint of inhibition, the IC50, lay at 5 µM. For `CCCC[C@H](NC(=O)[C@H](CC(C)C)NC(=O)OCc1ccccc1)C(=O)CSCc1ccccn1` [105 (No. 226), (s)-3-((s)-2-benzyloxycarbonylamino-4-methylvalerylamino)-1-(2-pyridylmethylthio)-2-heptanone] the value was 1.3 µM. `CCCC[C@H](NC(=O)[C@H](CC(C)C)NC(=O)c1cc2cccc(F)c2o1)C(=O)CSCc1ccco1` [93 (No. 182), (s)-3-[(s)-2-(7-fluoro-2-benzofuranylcarbonylamino)-4-methylvalerylamino]-1-furfurylthio-2-heptanone] showed a 50% inhibitory concentration (IC50) of 7.8 µM. For `CCCC[C@H](NC(=O)[C@H](CC(C)C)NC(=O)C1CCCCC1)C(=O)CSCc1ccco1` [29 (No. 65), (s)-3-((s)-2-cyclohexylcarbonylamino-4-methylvalerylamino)-1-furfurylthio-2-heptanone] the value was 3.6 µM.

`CCCC[C@H](NC(=O)[C@H](CC(C)C)NC(=O)OCc1ccccc1)C(=O)CSCc1cccnc1` [106 (No. 228), (s)-3-((s)-2-benzyloxycarbonylamino-4-methylvalerylamino)-1-(3-pyridylmethylthio)-2-heptanone] displayed a concentration for half-maximal inhibition (IC50) of 3.1 µM. For `CCCC[C@H](NC(=O)[C@H](CC(C)C)NC(=O)c1ccc(OC)cc1)C(=O)CSCc1ccco1` [79 (No. 153), (s)-1-furfurylthio-3-[(s)-2-(4-methoxybenzoylamino)-4-methylvalerylamino]-2-heptanone], the half-maximal inhibitory concentration (IC50) worked out at 1.9 µM. Compared with the last compound, the IC50 is about 1.6-fold lower. `CCCC[C@H](NC(=O)[C@H](CC(C)C)NC(=O)c1ccc(C(=O)OC)cc1)C(=O)CSCc1ccco1` [81 (No. 157), (s)-1-furfurylthio-3-[(s)-2-(4-methoxycarbonylbenzoylamino)-4-methylvalerylamino]-2-heptanone] gave an IC50 of 3.4 µM. Compared with the last compound, the IC50 is about 1.8-fold higher. Turning to `CCCC[C@H](NC(=O)[C@H](CC(C)C)NC(=O)c1ccc(F)c(F)c1F)C(=O)CSCc1ccco1` [64 (No. 126), (s)-1-furfurylthio-3-[(s)-4-methyl-2-(2,3,4-trifluorobenzoylamino)valerylamino]-2-heptanone], the concentration for half-maximal inhibition (IC50) is 4.3 µM. `CCCC[C@H](NC(=O)[C@H](CC(C)C)NC(=O)OCc1cccc(C#N)c1)C(=O)CSCc1ccco1` [26 (No. 57), (s)-3-[(s)-2-(3-cyanobenzyloxycarbonylamino)-4-methylvalerylamino]-1-furfurylthio-2-heptanone] registered an IC50 of 2.8 µM. For `CCCC[C@H](NC(=O)[C@H](CC(C)C)NC(=O)c1ccc(F)cc1F)C(=O)CSCc1ccco1` [59 (No. 121), (s)-3-[(s)-2-(2,4-difluorobenzoylamino)-4-methylvalerylamino]-1-furfurylthio-2-heptanone], the half-maximal inhibitory concentration (IC50) came to 4.2 µM. `CCCC[C@H](NC(=O)[C@H](CC(C)C)NC(=O)c1cccc(F)c1)C(=O)CSCc1ccco1` [56 (No. 118), (s)-3-[(s)-2-(3-fluorobenzoylamino)-4-methylvalerylamino]-1-furfurylthio-2-heptanone]: half-maximal inhibition (IC50) was put at 5.2 µM. Compound `CCCC[C@H](NC(=O)[C@H](CC(C)C)NC(=O)c1ccc(F)cc1)C(=O)CSCc1ccco1` [57 (No. 119), (s)-3-[(s)-2-(4-fluorobenzoylamino)-4-methylvalerylamino]-1-furfurylthio-2-heptanone] gave an IC50 of 5.3 µM. In turn, `CCCC[C@H](NC(=O)[C@H](CC(C)C)NC(=O)COc1ccccc1OC)C(=O)CSCc1ccco1` [47 (No. 102), (s)-1-furfurylthio-3-[(s)-2-(2-methoxyphenoxyacetylamino)-4-methylvalerylamino]-2-heptanone] returned an IC50 of 1.3 µM. Regarding `CCCC[C@H](NC(=O)[C@H](CC(C)C)NC(=O)c1cccc(F)c1F)C(=O)CSCc1ccco1` [58 (No. 120), (s)-3-[(s)-2-(2,3-difluorobenzoylamino)-4-methylvalerylamino]-1-furfurylthio-2-heptanone], the IC50 came out at 1.6 µM. Turning to `CCCC[C@H](NC(=O)[C@H](CC(C)C)NC(=O)c1ccc(F)c(F)c1)C(=O)CSCc1ccco1` [62 (No. 124), (s)-3-[(s)-2-(3,4-difluorobenzoylamino)-4-methylvalerylamino]-1-furfurylthio-2-heptanone], the midpoint of inhibition, the IC50, lay at 4.3 µM. In turn, `CCCC[C@H](NC(=O)[C@H](CC(C)C)NC(=O)OCc1ccccc1)C(=O)CSCc1ccncc1` [107 (No. 230), (s)-3-((s)-2-benzyloxycarbonylamino-4-methylvalerylamino)-1-(4-pyridylmethylthio)-2-heptanone] gave a concentration for half-maximal inhibition (IC50) of 4.2 µM. For `CCCC[C@H](NC(=O)[C@H](CC(C)C)NC(=O)c1ccccc1OC)C(=O)CSCc1ccco1` [77 (No. 151), (s)-1-furfurylthio-3-[(s)-2-(2-methoxybenzoylamino)-4-methylvalerylamino]-2-heptanone] the value was 1.2 µM; for `CCCC[C@H](NC(=O)[C@H](CC(C)C)NC(=O)c1ccccc1F)C(=O)CSCc1ccco1` [55 (No. 117), (s)-3-[(s)-2-(2-fluorobenzoylamino)-4-methylvalerylamino]-1-furfurylthio-2-heptanone], 1.5 µM. `CCCC[C@H](NC(=O)[C@H](CC(C)C)NC(=O)c1cc(F)c(F)c(F)c1)C(=O)CSCc1ccco1` [66 (No. 130), (s)-1-furfurylthio-3-[(s)-4-methyl-2-(3,4,5-trifluorobenzoylamino)valerylamino]-2-heptanone] yielded an IC50 of 1.4 µM. The IC50 values of the last two compounds are within 1.5-fold of each other.
